The results in this text go back to patent US10858422B2, “Methods for treating systemic lupus erythematosus with an anti-apolipoprotein B antibody” (Abcentra, LLC, priority 2016, dated 2020).

Marks after values point to notes of the source that are not given here.

For one experiment, the system named is gld.apoE−/− mice. The experiment is described as follows: Relative anti-P210 IgM/IgG antibody levels in serum (ELISA). Particulars: normal diet (ND), ± SEM. Type of experiment: in vivo, mouse. On the procedure: Each animal dosed with a test article received subcutaneous primary immunization in the dorsal interscapular area at Day 0 (7 weeks of age), followed by a booster on Day 21 and 35 (10 and 12 weeks of age). CVX-3-84 was used to dose ApoE^−/− (n=20), gld mice (n=20). CVX-3-123 was used to dose gld.ApoE^−/− (n=30 on high cholesterol chow; n=30 on normal chow diet).
20 gld.ApoE^−/− mice in the positive control group received an oral dose of rosiglitazone at 10 mg/kg/day in normal chow starting on Day 0 (7 weeks of age) and continuing for the duration of the study period. Mice receiving Rosiglitazone were sacrificed at Day 126 (25 weeks of age).
Serum and urine was collected at day 63 of the study (16 weeks of age). Serum collected at day 63 of the study was analyzed for anti-P210 IgM and IgG antibodies. Levels of oxidized phospholipid was also measured in gld.apoE^−/− mice maintained on normal diet.
Serum and urine was collected at euthanasia. Endpoint serum was analyzed for anti-nuclear antibody (ANA) titers, total cholesterol, triglycerides, anti-P210 IgM antibodies, and anti-P210 IgG antibodies. Endpoint serum from gld.ApoE^−/− animals maintained on normal diet was also analyzed for anti-cardiolipin antibodies. Anti-nuclear antibody titers were tested using the NOVA-lite Hep2 ANA assay, and serum dilutions of 1:100, 1:1000, 1:10000, 1:30000, and 1:90000 were tested for nuclear-localized antibody reactivity to human epithelial cells. Reactivity was detected using FITC-conjugated goat anti-mouse IgG antibody. ANAs were scored based on the presence or absence of antibody signal at each titer. Total cholesterol was assessed using Cholesterol E reagent according to the manufacturer's protocol. Triglyceride levels were assessed with Triglyceride Reagent and with a glycerol standard. Anti-P210 antibodies were detected by ELISA using reconstituted P210 peptide.
In general terms: In an ELISA, binding on a coated surface is turned into a signal by an enzyme label.

Experiment [1] has as its system Spleen T-cells from gld.apoE−/− mice. The experiment is described as follows: Cytokine production from spleen T-cells activated by CD3/CD28. Type of experiment: in vivo, mouse. Conditions: Avg; for IFN-γ production / IL-6 production / IL-10 production / IL-12 (p70) production: Normal Diet; for TNFα Production from Spleen T-cells: Western Diet. How it is done:
Lymph nodes and spleen were harvested and weighed. Splenocytes were isolated and analyzed for T-regulatory cell populations by immunofluorescence staining and flow cytometry. Splenocytes were also cultured and T-cells activated in vitro by Mouse T-Activator CD3/CD28. Production of cytokines INF-γ, IL-6, IL-10, IL-12, and […] by activated T-cells were assessed with immunoassays.
CVX-12 immunization is hypothesized to impact atherosclerosis via modulation of T-cell cytokine release. Thus cytokine release by cultured splenocytes activated by CD3 and CD28 was assessed for the cytokines IFNγ, IL-6, IL-10, IL-12 (p70), and TNFα (Tables 6-12). CVX-12 immunization increased IL-6 and IL-10 cytokine release from spleen T-cells in apoE^−/− mice. […] IL-10 release from gld.apoE^−/− splenocytes was decreased by CVX-12 immunization of gld.apoE^−/− mice on western diet.

The next experiment has as its system MRL/lpr ApoE−/− mice. The experiment is described as follows: Flow cytometry of blood, spleen and lymph node cells after oral immunization. Type of experiment: in vivo, mouse. Particulars: 30 μg/ml. In general terms: In flow cytometry, cells or beads pass a laser one at a time.
The next experiment deals with human PBMC. The experiment is described as follows: Death receptor activation of human PBMC: release of soluble death receptors, apoptosis. Type of experiment: cell-based. Particulars: for release of Fas into culture medium / release of TNF-R1: healthy donor PBMC, Fas ligand 0.5 μg/ml, IL-1β 10 ng/ml, TNF 10 ng/ml, LPS 10 μg/ml. The source says: PBMCs from SLE patients (n=6, x female and x male, age x+/−x years) and matched healthy controls (n=6, x female and x male, age x+/−x years) as well as from a healthy donor were isolated using FicollPaque Plus (GE healthcare, Waukesha, Wis., USA) density gradient centrifugation according to manufacturer's instructions. The cells from SLE patients and controls were resuspended in 40% autologous serum, 40% RPMI 1640 medium (Thermo Fisher Scientific, Waltham, Mass., USA) and 20% dimethyl sulfoxide (Sigma Aldrich, St. Louis, […]., USA) and frozen in liquid nitrogen.
Cells from healthy donors were seeded freshly at a density of 0.5×10^6 cells per well in complete RPMI (10 U/ml Penicillin/streptomycin, 1% L-glutamine, 1% sodium pyruvate, 1% Hepes and 0.1% mercaptoethanol) with 2% FBS (HyClone South Logan, Utah, USA). For death receptor activation, IL-1β, soluble Fas ligand, TNF (Peprotech, Rocky Hill, N.J., USA) and LPS (Sigma Aldrich) were used at a concentration of 10 ng/ml, 0.5 μg/ml, 10 ng/ml and 10 μg/ml respectively.
Cells from a healthy donor were seeded freshly at a density of 0.5×10^6 cells per well in complete RPMI (10 U/ml Penicillin/streptomycin, 1% L-glutamine, 1% sodium pyruvate, 1% Hepes and 0.1% mercaptoethanol) with 2% FBS (HyClone South Logan, Utah, USA). For death receptor activation, IL-1β, soluble Fas ligand, TNFα (Peprotech, Rocky Hill, N.J., USA) and LPS (Sigma Aldrich) were used at a concentration of 10 ng/ml, 0.5 μg/ml, 10 ng/ml and 10 μg/ml respectively.
Cell supernatants from death receptor activated PBMCs from a healthy donor and SLE patients/controls were used for measurement of soluble Fas, TNF-R1 and TRAIL-R2 with a magnetic bead system multiplex assay (R&D Systems, Minneapolis, Minn., USA) obtained by Luminex machine (Bio-Rad). For SLE patients and controls, TNF-R1 concentration was measured with ELISA (Abcam) according to manufacturer's recommendations.

In the case of `CN(CCOc1ccc(CC2SC(=O)NC2=O)cc1)c1ccccn1` (stereo not shown) [Rosiglitazone], in the experiment with gld.apoE−/− mice (Endpoint), the “anti-P210 IgG” value came out at 0.68 ± 0.07 OD at 405 nm and the “anti-P210 IgM” value was 0.42 ± 0.06 ^a, c OD at 405 nm. Besides, in the experiment on gld.apoE−/− mice (Midpoint), the “anti-P210 IgG” value came to 0.68 ± 0.07 OD at 405 nm and the “anti-P210 IgM” value is 0.64 ± 0.03 OD at 405 nm. In addition, in experiment [1] (Stimulated), the IFN-γ production came to 11419.9 pg/mL, the IL-6 production was 385.0* pg/mL, the IL-10 production was determined as 1528.3 pg/mL and the “IL-12 (p70) production” value came to 44.7 pg/mL. In addition, in experiment [1] (Unstimulated), the IFN-γ production is reported as 24.2* pg/mL, the IL-6 production was 255.9* pg/mL, the IL-10 production was 196.0 pg/mL and the “IL-12 (p70) production” value is recorded as 89.2 pg/mL. The “TNFα Production from Spleen T-cells” value in experiment [1] (Unstimulated) was 8.9 pg/mL. For the same molecule, the “TNFα Production from Spleen T-cells” value in experiment [1] (Stimulated (CD3/CD28)) came to 39.5 pg/mL.

Consider CTB, for which, in the experiment with MRL/lpr ApoE−/− mice, the “central memory T cells in lymph node” value is given as 34.5±10.6%, the “central memory helper T cells (CD3+CD4+CD62L+CD44int-hi) in spleen” value was 19.4±5.2% and the “cytolytic T cell populations (CD3+CD8+CD62L+CD44int-hi) in spleen” value is 18.2±3.7%.

As for “IL-1β: cytokine stimulus, 10 ng/ml [reference compound]”, in the experiment on human PBMC, the “release of Fas into culture medium” value was “no effect” and the “release of TNF-R1” value was “stimulated”.

As to TNF-α [reference compound], in the experiment on human PBMC, the “release of Fas into culture medium” value was “no effect” and the “release of TNF-R1” value was “no effect”.

B1: Fas ligand: soluble Fas ligand used for death receptor activation of PBMC (protein)
chain: PSPPPEKKELRKVAHLTGKSNSRSMPLEWEDTYGIVLLSGVKYKKGGLVINETGLYFVYSKVYFRGQSCNNLPLSHKVYMRNSKYPQDLVMMEGKMMSYCTTGQMWARSSYLGAVFNLTSADHLYVNVSELSLVNFEESQTFFGLYKL
For B1, in the experiment on human PBMC (PBMCs from SLE patients), the “increase in the release of FAS” value is recorded as 73%. Further, the “frequency of apoptotic lymphocytes” value in the experiment with human PBMC (PBMCs from healthy controls (not in PBMCs from SLE patients)) is listed as “increased”. Further, in the experiment with human PBMC, the “release of Fas into culture medium” value was “stimulated” and the “release of TNF-R1” value is “stimulated”.
